Measured values taken from patent publication US20220143148A1, “COMPOSITIONS AND METHODS FOR MODULATING CGRP SIGNALING TO REGULATE INTESTINAL INNATE LYMPHOID CELLS” (The Broad Institute, Inc., priority 2019, published 2022).

How the values were obtained:
[1] = system: KLRG1+ ILC2s; experiment: In vitro proliferation assay (CellTrace Violet, flow cytometry); assay type: cell-based, mouse; details: IL-25 with α-CGRP plus adenylate cyclase inhibitor
Experimental: (§1) Flow cytometry and cell sorting. Cells were washed and suspended in MACS buffer (pH 7.4; PBS plus 2% FCS and 2 mM EDTA). Nonspecific antibody binding was blocked with CD16/CD32 (2.4G2) antibody for 15 min on ice. Cells were then stained with antibody cocktails for 30 min at 4° C. Lineage-positive cells were excluded for analyzing ILCs by staining for CD3ε (145-2C11), CD5 (53-7.3), CD19 (6D5), CD11b (M1/70), CD8 (53-6.7), CD11c (N418), Gr-1 (RB6-8C5), TCRγδ (eBioGL3 (GL-3, GL3)) and TCRβ (H57-597). To analyze mast cells, lineage-positive cells were excluded by staining for CD3ε, CD5, CD19, CD11c and SiglecF (E50-2440). For surface staining, antibodies for KLRG1 (2F1), CD45 (30-F11), CD127 (A7R34), CCR6 (29-2L17), NKp46 (29A1.4), CD90.2 (53-2.1), FcεRI (Mar-1), IgD (11-26c.2a) and ST2 (DJ8) were used. For intracellular staining, cells were fixed and permeabilized using the Foxp3 transcription factor staining buffer set, followed by staining with anti-GATA-3 (TWAJ) or anti-RORγt (B2D) antibodies. Dead cells were excluded with 7-AAD or Fixable Viability Dye eFluor 780. Flow cytometry was performed on Cytoflex (Beckman Coulter) and analyzed with FlowJo software. Sorting was performed with the SH800S Cell Sorter (Sony Biotechnology).
ILC2 culture. […]

[2] = system: TDAG8 (GPR65); details: cited from earlier work
[3] = target: T1, TDAG8 (Rattus norvegicus, UniProt A0A8I6AHC6); details: in vivo; cited from earlier work
T1 construct: host or cells: rat, in vivo (endogenous receptor)

[4] = system: intestinal KLRG1+ ILC2s; experiment: Bulk RNA-seq of intestinal KLRG1+ ILC2s stimulated in vitro; assay type: cell-based, mouse; details: IL-25 alone in vitro
From the text: To determine if α-CGRP can directly trigger signaling in ILC2s and impact their transcriptional states under inflammatory conditions, Applicants performed bulk RNA-seq of KLRG1^+ ILC2s isolated from the small intestine and stimulated in vitro with IL-25 alone or together with α-CGRP. […] Thus, α-CGRP inhibits IL-25-induced proliferation and activation of intestinal KLRG1+ILC2s.
The presence at homeostasis of α-CGRP receptors on ILC2s and α-CGRP's expression on ChAT^+ intestinal neurons led Applicants to hypothesize that it has an effect on ILC2s during homeostasis. To test this hypothesis, Applicants next measured the expression profiles of intestinal KLRG1^+ ILC2s stimulated in vitro by α-CGRP alone, and identified genes differentially expressed under this signal (FIG. 6D, Methods).
ILC2 culture. Sort-purified intestinal KLRG1^+ ILC2s were incubated in RPMI supplemented with 10% FCS, 10 mM Hepes, 1 mM sodium pyruvate, 10% FBS, 80 μm 2-mercaptoethanol, 2 mM glutamine, 100 U/ml penicillin, […] streptomycin, 100 ng/ml IL-2 and 100 ng/ml IL-7 in 96-well round bottom plate at 37° C. and 5% CO2. If indicated, the culture was supplemented with 100 ng/ml IL-25. For the in vitro proliferation assay, cells from different mice were pooled and labeled with CellTrace Violet, and then cultured at 1,000-1,500 cells per well with 10 μg/ml α-CGRP for 60 hours. When indicated, 10 μM forskolin or 1 μM SQ 22, 536 in DMSO was supplied and cells were cultured for 40 hours. For bulk RNA-seq, cells from individual mice were stimulated at 200 cells per well with 0.4 μg/ml α-CGRP for 3 hours. For bulk ATAC-seq, cells were stimulated with 0.4 μg/ml α-CGRP for 2 hours.
Bulk RNA-seq. 200 ILC2s from each condition were lysed in 10 ul TCL buffer plus 0.5% 2-Mercaptoethanol. Libraries were processed with SMART-Seq2 (Picelli et al., 2013) with at least three replicates per condition, and paired-end sequenced (75 bp×2) with a […] Nextseq 500 high output V2 kit.
Reads were aligned to the mouse reference genome (NCBI 38, mm10) using Bowtie (Langmead et al., 2009) with default parameters, and expression abundances were estimated using RSEM software (Li and Dewey, 2011). The differential gene expression analysis was performed with edgeR (Robinson et al., 2010) with default parameters.

[5] = system: KLRG1+ ILC2s; experiment: IL-25-induced in vivo ILC2 activation model; set-up: species or system mouse; details: IL-25 administration alone
From the text: Intraperitoneal administration of α-CGRP impaired IL-25-induced expansion of KLRG1^+ ILC2s (FIGS. 5B and 12A), consistent with the in vitro results. Recent work has shown that intestinal KLRG1^+ ILC2s can migrate to mesenteric lymph nodes (mLNs) and other tissues during inflammation via sphingosine 1-phosphate (S1P)-mediated chemotaxis (Huang et al., 2018). To determine whether α-CGRP primarily impacts intestinal or mLN ILC2s, Applicants relied on the fact that intestinal GATA3^+ ILC2s are generally phenotypically KLRG1^+ST2^− (data not shown), whereas mLN ILC2s are mainly ST2^+ at steady state (FIG. 5C). IL-25 administration increased the frequency of both KLRG1^+ST2^− inflammatory ILC2s and ST2^+ ILC2s in mLNs (FIGS. 5C-E and 12B). […] Thus, α-CGRP preferentially regulates the response of intestinal KLRG1^+ST2^− ILC2s. […] Taken together, α-CGRP antagonized expansion of intestinal KLRG1^+ ILC2s in two different type 2 inflammatory models.
To activate ILC2s in vivo, 200 ng of IL-25 was intraperitoneally injected into 7-10 weeks old mice daily for two days. 1 μg α-CGRP was injected together as noted.
as §1
Immunofluorescence staining and imaging. The small intestines were fixed in 2% PFA, embedded in O.C.T. Compound and sliced into 10 μm by frozen section. The slides were blocked with 0.1% Triton X-100, 2% FCS and donkey serum. […] The images were analyzed with ImageJ.

T1 sequence (A0A8I6AHC6 1-337): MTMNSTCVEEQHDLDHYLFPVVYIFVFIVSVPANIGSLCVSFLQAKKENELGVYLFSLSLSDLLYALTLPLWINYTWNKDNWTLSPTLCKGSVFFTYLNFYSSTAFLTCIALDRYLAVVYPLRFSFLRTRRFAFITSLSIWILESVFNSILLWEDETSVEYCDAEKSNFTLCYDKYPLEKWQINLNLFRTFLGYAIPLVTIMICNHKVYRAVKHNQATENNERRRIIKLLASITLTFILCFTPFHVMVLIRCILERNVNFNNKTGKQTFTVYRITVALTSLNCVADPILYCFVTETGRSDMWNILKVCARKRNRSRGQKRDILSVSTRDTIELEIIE

## Nc1ncnc2c1ncn2C1CCCO1 (stereo not drawn) [SQ22, 536, reference compound]
[1]
  α-CGRP inhibition of ILC2 proliferation: partially rescues

## CN1N=C(SCc2ccc(Cl)cc2Cl)Sc2c1cnn(C)c2=O [BTB09089, 3-[(2,4-dichlorobenzyl)thio]-1,6-dimethyl-5,6-dihydro-1H-pyridazino[4,5-e][1,3,4]thiadiazin-5-one]
[2]
  TDAG8 activation in vitro: activate
[3]
  efficacy in ischemic stroke murine disease model: in vivo efficacy

B1: IL-25: cytokine used to activate ILC2s in vitro and in vivo (protein, UniProt Q8VHH8 17-169, looked up)
Interleukin-25: VSLRIQEGCSHLPSCCPSKEQEPPEEWLKWSSASVSPPEPLSHTHHAESCRASKDGPLNSRAISPWSYELDRDLNRVPQDLYHARCLCPHCVSLQTGSHMDPLGNSVPLYHNQTVFYRRPCHGEEGTHRRYCLERRLYRVSLACVCVRPRVMA
[4]
  activation phenotype (expression of type 2 cytokines Il13, Il5 and mitotic genes such as Myc): induced the expected activation phenotype
[5]
  frequency of KLRG1+ST2− inflammatory ILC2s in mLNs: increased
  frequency of ST2+ ILC2s in mLNs: increased
